In US12582632B2, “Inhibition of neurological injuries due to infections via administration of Butanetap and analogs thereof” (priority 2021, dated 2026):

Assays:
[1] = Plasma and brain levels in humans, calculated and extrapolated from mice data
Source text: The doses are provided in mg/kg; mg dose for a 70 kg human; plasma levels in mice and humans (ng/ml); plasma levels in humans (nM); brain levels in mice and humans (ng/gram); oral human efficacious and safe dose (mg/day); IP/P human efficacious and safe dose (mg/day); and IV human efficacious and safe dose (mg/day).

[2] = tested on: aSYN in SH-SY-5Y human neuroblastoma cells; assay: alpha-synuclein in vitro, Western blot; format: cell-based; conditions: 0, 0.1, 1, 5 and 10 μM, FIG. 5
Protocol: • A. FIG. 5, alpha-synuclein in vitro. […] On the left is a Western blot showing butanetap inhibition of aSYN in relation to Actin standard at concentrations of 0, 0.1, 1, 5 and 10 μM and on the right a graph showing the same data plotted for statistical analysis purposes. • B. FIG. 6, alpha-synuclein brain in vivo. […] The animals were only treated for 2 weeks, so in brain it takes butanetap only 2 weeks to lower levels of alpha-synuclein. • C. FIG. 7, alpha-synuclein in gut in vivo. Gut levels of aSYN following treatment of PD A53T mice with 10 mg/kg for 21 weeks and 21 days reduced αSYN levels in the gut as shown by Western Blot.

[3] = tested on: insoluble (aggregated) tau; assay: Tau in vivo, hTau mice, ELISA; conditions: in mouse chow, 6 weeks; three of the 4 ELISA assays, FIG. 4
Protocol: The cells were treated for 4 days with butanetap harvested, solubilized, and tested with antibodies against Tau and phospho-Tau. • B. FIG. 4, Tau in vivo. […] After 6 weeks, mice were killed and the total and insoluble (aggregated) tau was measured. […] Precipitated tau corresponds to tangles in the brain.

[4] = tested on: APP in SH-SY-5Y human neuroblastoma cells; assay: APP in vitro, Western blot; format: cell-based; conditions: 0, 0.1, 1, 5 and 10 μM, FIG. 1
[5] = Efficacious concentration in tissue culture; format: cell-based
[6] = tested on: fully differentiated Down syndrome nerve cells; assay: Vesicle transport in Down syndrome nerve cells; format: cell-based
Source text: (§1) Butanetap's reversal of the neurotoxic cascade: Butanetap's mechanism of action is related to APP, Tau, and aSYN expression being regulated by RP1 and by iron and the way these proteins contribute to neurodegeneration by accumulating as toxic aggregates that impair axonal transport and synaptic transmission, causing inflammation, and, finally, leading to nerve cell death (as described previously).

[7] = tested on: neurotoxic aggregating proteins in stem cells (dividing cells); assay: Neurotoxic aggregating proteins in stem cells and derived neurons; format: cell-based
[8] = tested on: APP, Tau, αSYN and inflammatory markers in CSF; conditions: MCI subjects, cited from earlier work
[9] = tested on: traumatic brain injury rats; assay: Traumatic brain injury rats; format: in vivo, rat
Source text: Butanetap's efficacy in treating neurodegeneration in animal models: Restored memory and learning in an APP/PS1 transgenic (tg) mouse model of AD; Restored memory and learning in a Ts65dn mouse model of Down syndrome (DS) [W. Mobley, UCSD, submitted 2020]; Preserved the retina in acute glaucoma [J Sundstrom; Hershey Medical School]; Restored colonic motility in a human SNCAA53T tg mouse model of PD (Kuo et. al., Am J Neurodegener Dis 2019; 8(1):1-15 www.AJND.us/ISSN:216 591X/AJND0086080: Translational inhibition of α-synuclein by Butanetap (Posiphen) normalizes distal colon motility in transgenic Parkinson mice); Preserved memory and learning in traumatic brain injury rats (M-F Chesselet, submitted 2020).
as §1

[10] = tested on: neurotoxic aggregating proteins; assay: Translation of neurotoxic aggregating proteins in healthy mouse brain; format: in vivo
Source text: Therefore, the original data concerning the effects of butanetap working under all conditions is wrong. (See, e.g., Lahiri, et al., “The Experimental Alzheimer's Disease Drug butanetap [(+)-Phenserine] Lowers Amyloid-β Peptide Levels in Cell Culture and Mice”, J. Pharmacol. Ther. 320:386-396, 2007 (hereby incorporated by reference)). It only works in stressed cells, dividing cells and sick cells, e.g., those cells that have high levels of iron.

APP and its fragments = assay: APP and fragments in hippocampus of APP/PS1 transgenic AD mice; format: in vivo
Source text: GAPDH and Synaptophysin were loading controls. FIG. 2 also includes a collection of graphs showing relative density of APP plotted against control and time after butanetap treatment; relative density of CTFβ plotted against control and time after butanetap treatment; relative density of CTFα plotted against control and time after butanetap treatment; Aβ42 levels in brain tissue plotted against control and time after butanetap treatment; and Aβ40 levels in brain tissue plotted against control and time after butanetap treatment. Finally, FIG. 2 also includes a Western blot showing levels of APP, NSB, CTFβ, and CTFα after butanetap treatment over time (minutes).

[11] = dose 0.014 mg/kg, 1.0 mg for 70 kg
[12] = dose 0.07 mg/kg, 4.9 mg for 70 kg
[13] = dose 0.143 mg/kg, 10.0 mg for 70 kg
[14] = dose 0.16 mg/kg, 11.2 mg for 70 kg
[15] = dose 0.21 mg/kg, 14.7 mg for 70 kg
[16] = dose 0.23 mg/kg, 16.1 mg for 70 kg
[17] = dose 0.29 mg/kg, 20.3 mg for 70 kg
[18] = dose 0.34 mg/kg, 23.8 mg for 70 kg
[19] = dose 0.57 mg/kg, 39.9 mg for 70 kg
[20] = dose 1 mg/kg, 70.0 mg for 70 kg
[21] = dose 1.14 mg/kg, 79.8 mg for 70 kg
[22] = dose 1.71 mg/kg, 119.7 mg for 70 kg
[23] = dose 2.13 mg/kg, 149.1 mg for 70 kg
[24] = dose 2.29 mg/kg, 160.3 mg for 70 kg

CN1CC[C@]2(C)c3cc(OC(=O)Nc4ccccc4)ccc3N(C)C12 (stereo partly drawn) [butanetap, (3aR)-1,3a,8-trimethyl-1,2,3,3a,8,8a-hexahydropyrrolo[2,3-b]indol-5-yl phenylcarbamate]
Brain levels in humans [1, 11]: 8 ng/gram
Plasma levels in human [1, 11]: 1 ng/mL
Plasma levels in humans [1, 11]: 3 nM
Brain levels in humans [1, 12]: 16 ng/gram
Plasma levels in human [1, 12]: 2 ng/mL
Plasma levels in humans [1, 12]: 6 nM
Brain levels in humans [1, 13]: 29.6 ng/gram
Plasma levels in human [1, 13]: 3.7 ng/mL
Plasma levels in humans [1, 13]: 10 nM
Brain levels in humans [1, 14]: 45.6 ng/gram
Plasma levels in human [1, 14]: 5.7 ng/mL
Plasma levels in humans [1, 14]: 17 nM
Brain levels in humans [1, 15]: 92 ng/gram
Plasma levels in human [1, 15]: 11.5 ng/mL
Plasma levels in humans [1, 15]: 32 nM
Brain levels in humans [1, 16]: 103.2 ng/gram
Plasma levels in human [1, 16]: 12.9 ng/mL
Plasma levels in humans [1, 16]: 38 nM
Brain levels in humans [1, 17]: 112 ng/gram
Plasma levels in human [1, 17]: 14 ng/mL
Plasma levels in humans [1, 17]: 41 nM
Brain levels in humans [1, 18]: 160 ng/gram
Plasma levels in human [1, 18]: 20 ng/mL
Plasma levels in humans [1, 18]: 58 nM
Brain levels in humans [1, 19]: 336 ng/gram
Plasma levels in human [1, 19]: 42 ng/mL
Plasma levels in humans [1, 19]: 123 nM
Brain levels in humans [1, 20]: 720 ng/gram
Plasma levels in human [1, 20]: 90 ng/mL
Plasma levels in humans [1, 20]: 264 nM
Brain levels in humans [1, 21]: 960 ng/gram
Plasma levels in human [1, 21]: 120 ng/mL
Plasma levels in humans [1, 21]: 352 nM
Brain levels in humans [1, 22]: 1600 ng/gram
Plasma levels in human [1, 22]: 200 ng/mL
Brain levels in humans [1, 23]: 1920 ng/gram
Plasma levels in human [1, 23]: 240 ng/mL
Brain levels in humans [1, 24]: 3040 ng/gram
Plasma levels in human [1, 24]: 380 ng/mL
aSYN in relation to Actin standard [2]: lowers aSYN in vitro in a dose-dependent manner
amount of insoluble tau [3]: significant reduction
APP in relation to Actin standard [4]: lowers APP in vitro in a dose-dependent manner
dose found to be efficacious [5]: 1 nM
anterograde and retrograde vesicle transport [6]: Normalized
neurotoxic aggregating proteins ([7]; differentiated neurons derived from the stem cells): not in the differentiated neurons
neurotoxic aggregating proteins ([7]; stem cells (dividing cells)): inhibits
levels of APP, Tau, and αSYN in the cerebrospinal fluid (CSF) ([8]; 4×60 mg/day): normalized
CSF Aβ42 [8]: trend to lower
CSF levels of p-tau [8]: significantly lowered
CSF levels of sAPPα [8]: significantly lowered
CSF levels of sAPPβ [8]: significantly lowered
CSF levels of specific inflammatory markers [8]: significantly lowered
CSF levels of t-tau [8]: significantly lowered
half-life in CSF [8]: > 12 h
inflammation ([9]; rat brain after TBI): lowered
impaired synaptic transmission ([9]; rat striatum after TBI): Normalized
nerve cells ([9]; rat substantia nigra after TBI): protected
memory and learning ([9]; traumatic brain injury rats): Preserved
translation of neurotoxic aggregating proteins [10]: does not inhibit
APP and its fragments (all related peptides) in hippocampus (APP and its fragments; FIG. 2): reduced
duration of reduction of APP and related peptides after the last dose (APP and its fragments; hippocampus): at least 9 hours
